Values of other authors, collected in US20050255458A1, “Drug discovery assays based on the biology of chronic disease” (priority 2002, published 2005).
Read-outs that look alike come from different tables or passages of the source.

Legend:
ERK1 and ERK2 = conditions: 20 μm, 15 min; cited from earlier work
NF-κB = conditions: cited from earlier work
DC = conditions: inhaled; cited from earlier work
[1] = test system: ‘Langerhans’ cells in nasal mucosa; conditions: topical; cited from earlier work
ERK1/2 = conditions: cited studies, various cells; cited from earlier work
[2] = test system: third intron enhancer of the TNFα gene; conditions: PBMC stimulated with TPA; cited from earlier work
[3] = test system: ML-1 human myeloblastic leukemic cells; conditions: cited from earlier work; for increase in ERK activity: 0.3 ng/ml
ERK [4] = conditions: cited from earlier work
ERK [5] = conditions: LNCaP; cited from earlier work
AR gene [6] = conditions: cited from earlier work
anagen hair follicles = conditions: cited from earlier work
[7] = 0.3-0.5 mmol/kg/day, from day 56; cited from earlier work
[8] = test system: Moloney murine leukemia virus (MMuLV); conditions: cited from earlier work
Rous sarcoma virus (RSV) = conditions: cited from earlier work
TF = conditions: cited from earlier work
AR gene [9] = conditions: 50 μg/ml, 4 hours, 21-day-old rats; cited from earlier work
TF antigen = conditions: cited from earlier work
ACE [10] = biological target: T1, ACE (Mus musculus, UniProt P09470); conditions: zofenopril 0.05 or 1, captopril 5, enalapril 0.5 mg/kg/day; 29 weeks; cited from earlier work
T1 sequence (P09470 35-1312): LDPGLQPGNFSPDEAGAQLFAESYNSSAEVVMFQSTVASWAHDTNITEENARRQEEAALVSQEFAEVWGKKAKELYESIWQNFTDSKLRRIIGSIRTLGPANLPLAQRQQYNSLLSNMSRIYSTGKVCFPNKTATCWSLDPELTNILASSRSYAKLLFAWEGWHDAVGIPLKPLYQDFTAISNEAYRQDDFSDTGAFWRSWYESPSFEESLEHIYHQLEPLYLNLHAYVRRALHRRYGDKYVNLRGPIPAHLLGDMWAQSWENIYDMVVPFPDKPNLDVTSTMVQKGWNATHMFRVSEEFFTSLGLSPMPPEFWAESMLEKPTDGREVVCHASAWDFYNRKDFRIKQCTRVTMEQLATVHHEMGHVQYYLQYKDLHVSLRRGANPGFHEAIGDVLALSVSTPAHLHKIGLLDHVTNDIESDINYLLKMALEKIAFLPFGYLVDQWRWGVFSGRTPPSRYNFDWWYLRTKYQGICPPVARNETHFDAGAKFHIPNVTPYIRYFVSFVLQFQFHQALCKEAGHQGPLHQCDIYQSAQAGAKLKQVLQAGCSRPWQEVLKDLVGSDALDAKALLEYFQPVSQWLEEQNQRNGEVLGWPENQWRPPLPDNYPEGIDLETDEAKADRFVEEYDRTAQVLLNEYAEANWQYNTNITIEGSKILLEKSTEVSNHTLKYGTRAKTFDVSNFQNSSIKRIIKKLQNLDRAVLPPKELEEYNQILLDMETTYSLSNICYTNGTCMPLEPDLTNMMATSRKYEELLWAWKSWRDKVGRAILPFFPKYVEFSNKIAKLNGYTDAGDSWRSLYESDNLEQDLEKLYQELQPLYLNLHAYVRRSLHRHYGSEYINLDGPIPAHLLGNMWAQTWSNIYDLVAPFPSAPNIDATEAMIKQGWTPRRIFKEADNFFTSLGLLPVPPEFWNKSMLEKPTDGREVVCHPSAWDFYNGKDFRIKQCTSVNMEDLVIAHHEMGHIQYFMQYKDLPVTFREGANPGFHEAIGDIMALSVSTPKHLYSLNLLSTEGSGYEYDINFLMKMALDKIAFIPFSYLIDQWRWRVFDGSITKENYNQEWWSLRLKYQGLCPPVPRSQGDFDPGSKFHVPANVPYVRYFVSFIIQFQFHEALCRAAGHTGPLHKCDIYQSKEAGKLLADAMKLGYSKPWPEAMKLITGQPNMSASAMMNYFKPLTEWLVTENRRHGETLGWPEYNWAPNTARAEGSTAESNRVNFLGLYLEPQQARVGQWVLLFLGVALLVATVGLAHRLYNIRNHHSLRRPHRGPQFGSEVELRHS

ACE [11] = biological target: ACE (Homo sapiens, UniProt P12821); parameters: randomly assigned 9,297 high-risk patients; from tissue; host or cells: patients, in vivo; conditions: 5 mg/day, vs placebo; cited from earlier work
ACE (Homo sapiens, UniProt P12821), sequence (P12821 30-1306): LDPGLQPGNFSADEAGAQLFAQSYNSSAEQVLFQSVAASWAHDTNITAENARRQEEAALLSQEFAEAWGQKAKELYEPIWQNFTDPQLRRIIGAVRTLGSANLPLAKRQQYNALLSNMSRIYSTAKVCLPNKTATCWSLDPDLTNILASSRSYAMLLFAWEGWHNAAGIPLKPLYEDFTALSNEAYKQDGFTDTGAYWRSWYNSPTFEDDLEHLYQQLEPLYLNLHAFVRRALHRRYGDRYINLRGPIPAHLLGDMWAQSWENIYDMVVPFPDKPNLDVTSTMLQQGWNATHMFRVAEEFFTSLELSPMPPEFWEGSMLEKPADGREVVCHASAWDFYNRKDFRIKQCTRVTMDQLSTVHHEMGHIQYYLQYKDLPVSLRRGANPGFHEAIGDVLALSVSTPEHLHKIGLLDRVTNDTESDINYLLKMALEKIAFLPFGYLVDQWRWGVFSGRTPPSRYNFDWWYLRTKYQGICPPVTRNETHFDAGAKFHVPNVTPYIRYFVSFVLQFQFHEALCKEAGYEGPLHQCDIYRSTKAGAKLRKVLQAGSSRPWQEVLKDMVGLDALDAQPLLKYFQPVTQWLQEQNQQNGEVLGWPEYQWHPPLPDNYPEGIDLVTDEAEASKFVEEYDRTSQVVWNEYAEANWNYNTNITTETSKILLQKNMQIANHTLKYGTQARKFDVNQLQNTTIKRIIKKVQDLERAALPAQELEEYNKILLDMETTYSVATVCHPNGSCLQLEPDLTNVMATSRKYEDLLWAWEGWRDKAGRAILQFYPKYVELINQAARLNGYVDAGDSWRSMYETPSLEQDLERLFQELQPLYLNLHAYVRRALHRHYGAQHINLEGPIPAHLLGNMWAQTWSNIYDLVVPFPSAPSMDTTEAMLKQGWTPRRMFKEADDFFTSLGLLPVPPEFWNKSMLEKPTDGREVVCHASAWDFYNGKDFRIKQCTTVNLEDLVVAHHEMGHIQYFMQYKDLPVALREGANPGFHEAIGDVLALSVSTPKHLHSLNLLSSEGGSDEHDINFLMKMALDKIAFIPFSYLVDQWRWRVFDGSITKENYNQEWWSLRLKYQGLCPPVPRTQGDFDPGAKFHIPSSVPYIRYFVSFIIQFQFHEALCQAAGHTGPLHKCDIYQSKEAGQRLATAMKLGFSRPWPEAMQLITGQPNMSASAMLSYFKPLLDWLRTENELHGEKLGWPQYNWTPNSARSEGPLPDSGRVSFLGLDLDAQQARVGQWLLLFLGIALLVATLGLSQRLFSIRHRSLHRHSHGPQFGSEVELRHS

[12] = test system: LS 174T colon cancer cells; conditions: after the fourth day of treatment; cited from earlier work
metallothionein (MT) [13] = conditions: cited from earlier work
metallothionein (MT) [14] = conditions: cited from earlier work; remark: listed apart in the source
metallothionein (MT) [15] = conditions: non-transformed hepatocytes; cited from earlier work
PFK-2/FBPase-2 = conditions: diabetic animals, up to 15 days; cited from earlier work
[16] = obese Zucker rats; cited from earlier work
[17] = test system: obese (fa/fa) Zucker rats; conditions: chronic ICV microinjection; cited from earlier work
[18] = test system: genetically obese ob/ob or db/db mice; conditions: low dose injection, for several hours; cited from earlier work
[19] = biological target: T2, long form leptin receptor (Rattus norvegicus, UniProt Q62959); conditions: CHO cells; cited from earlier work
T2 construct: expressed in transfected cells; host or cells: Chinese hamster ovary (CHO) cells
T2 sequence (Q62959 22-1162): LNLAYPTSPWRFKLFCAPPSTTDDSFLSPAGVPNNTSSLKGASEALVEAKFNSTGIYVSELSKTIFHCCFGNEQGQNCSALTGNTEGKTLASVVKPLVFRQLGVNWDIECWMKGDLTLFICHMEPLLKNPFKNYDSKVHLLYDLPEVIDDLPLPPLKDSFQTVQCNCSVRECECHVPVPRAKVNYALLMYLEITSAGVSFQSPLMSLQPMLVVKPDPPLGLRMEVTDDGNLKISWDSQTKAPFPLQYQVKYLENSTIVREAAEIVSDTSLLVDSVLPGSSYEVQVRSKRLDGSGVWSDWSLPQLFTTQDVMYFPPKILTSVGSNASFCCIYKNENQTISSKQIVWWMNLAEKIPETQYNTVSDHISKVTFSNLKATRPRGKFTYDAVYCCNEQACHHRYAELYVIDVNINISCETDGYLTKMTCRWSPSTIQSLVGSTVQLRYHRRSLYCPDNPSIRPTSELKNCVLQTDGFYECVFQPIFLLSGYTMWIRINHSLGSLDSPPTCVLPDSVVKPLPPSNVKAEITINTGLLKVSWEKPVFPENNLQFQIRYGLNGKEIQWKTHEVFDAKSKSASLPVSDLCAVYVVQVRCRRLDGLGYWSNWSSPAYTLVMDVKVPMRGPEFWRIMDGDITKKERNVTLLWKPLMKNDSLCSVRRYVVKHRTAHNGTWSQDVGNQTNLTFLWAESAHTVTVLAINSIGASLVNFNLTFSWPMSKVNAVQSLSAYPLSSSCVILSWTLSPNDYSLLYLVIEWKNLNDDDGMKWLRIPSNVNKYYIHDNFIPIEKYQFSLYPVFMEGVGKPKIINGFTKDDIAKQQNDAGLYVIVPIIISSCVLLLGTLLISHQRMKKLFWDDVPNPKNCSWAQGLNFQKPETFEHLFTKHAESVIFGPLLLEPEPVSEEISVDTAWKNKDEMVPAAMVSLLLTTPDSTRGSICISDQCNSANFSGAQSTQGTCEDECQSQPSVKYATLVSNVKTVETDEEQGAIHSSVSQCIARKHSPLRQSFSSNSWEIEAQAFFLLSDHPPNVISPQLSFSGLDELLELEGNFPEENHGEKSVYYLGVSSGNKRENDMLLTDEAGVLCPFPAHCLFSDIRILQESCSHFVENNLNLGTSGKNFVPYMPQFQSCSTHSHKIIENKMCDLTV

PTP1B = PTP1B (Homo sapiens, UniProt P18031); conditions: Huyer 1997; cited from earlier work
PTP1B, sequence (P18031 whole entry, species assumed): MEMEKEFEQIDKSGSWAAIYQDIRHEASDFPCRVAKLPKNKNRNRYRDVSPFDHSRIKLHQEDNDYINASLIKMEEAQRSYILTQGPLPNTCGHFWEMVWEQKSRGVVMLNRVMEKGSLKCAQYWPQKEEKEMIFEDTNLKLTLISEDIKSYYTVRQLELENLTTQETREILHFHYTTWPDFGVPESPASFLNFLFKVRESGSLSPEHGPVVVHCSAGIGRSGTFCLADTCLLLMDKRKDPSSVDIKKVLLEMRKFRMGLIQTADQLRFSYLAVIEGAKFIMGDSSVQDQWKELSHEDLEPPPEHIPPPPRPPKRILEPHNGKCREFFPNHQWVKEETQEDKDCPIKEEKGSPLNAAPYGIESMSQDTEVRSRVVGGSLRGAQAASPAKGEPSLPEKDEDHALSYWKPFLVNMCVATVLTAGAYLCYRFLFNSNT

CCCCCC1OC1CC=CCC=CCC=CCCCC(=O)O (stereo not shown) [14,15-EET, 14,15-epoxyeicosatrienoic acid]
ERK1 and ERK2 phosphorylation (ERK1 and ERK2): stimulated ERK1 and ERK2 phosphorylation

CCC(=O)O[C@]1(C(=O)SCF)[C@H](C)C[C@H]2[C@@H]3C[C@H](F)C4=CC(=O)C=C[C@]4(C)[C@@]3(F)[C@@H](O)C[C@@]21C [FP, Fluticasone propionate]
NF-κB activation (NF-κB): decreases NF-κB activation
number of DC in asthma (DC): decreased the number of DC in asthma
number of antigen-presenting ‘Langerhans’ cells in nasal mucosa [1]: decreased the number of the antigen-presenting ‘Langerhans’ cells

CCCCCCCCCCCCCC(=O)O[C@@H]1[C@@H](C)[C@@]2(O)[C@@H](C=C(CO)C[C@]3(O)C(=O)C(C)=C[C@@H]23)[C@@H]2C(C)(C)[C@]12OC(C)=O [TPA, phorbol 12-myristate 13-acetate]
phosphorylation of ERK1/2 (ERK1/2): phosphorylation of ERK1/2
DNase-I hypersensitivity of the third intron enhancer of the TNFα gene [2]: enhanced
increase in ERK activity ([3]; 1 h): 6 fold
increase in ERK activity ([3]; 3 h): 4 fold
ML-1 proliferation ([3]; 3-day 0.3 ng/ml, then 3 days without TPA): cease proliferation
ERK phosphorylation (ERK [4]; Jurkat cells): increased ERK phosphorylation
Effect on [ERK^phos] (ERK [5]): ↑[ERK^phos]
mouse AR mRNA (AR gene [6]; Kumar 1998): increase in mouse AR mRNA
Effect on [mRNAAR] (AR gene [6]; Sertoli, 19 days old rats): ↓[mRNAAR]
hair growth (anagen hair follicles; 6 days culture, A 23187 2 μM, TPA 1 μM, IL-1 100 ng per ml (Hoffmann 1997)): significantly inhibited hair growth
IC50 (anagen hair follicles; suspension culture (Harmon 1995), read-out: inhibition of total cumulative hair follicle growth): 1 nM

Cc1occc(=O)c1[O-].Cc1occc(=O)c1[O-].[O]=[V+2] [bis(maltolato)oxovanadium]
weight gain [7]: decreased weight gain

C/C=C/C/C=C/CCC(=O)[C@H]1O[C@H]1C(N)=O [cerulenin]
virus production [8]: drastically decreased
virus production (Rous sarcoma virus (RSV)): inhibited

C[C@@H]1C[C@@H]([C@H](O)CC2CC(=O)NC(=O)C2)C(=O)[C@@H](C)C1 [cycloheximide]
AGE-alb induced TF mRNA (TF): completely suppressed
increase in AR mRNA (AR gene [9]): 1.7±0.4 fold
ERK phosphorylation (ERK [4]; oocytes): decreased ERK phosphorylation

CCOC(=O)[C@H](CCc1ccccc1)N[C@@H](C)C(=O)N1CCC[C@H]1C(=O)O [enalapril]
plasma TF antigen level (TF antigen; day 3): 205±14
plasma TF antigen level (TF antigen; day 28): 169±13
total lesion area compared to placebo (ACE [10]): no significant decrease in lesion area
changes in mean absolute diameter, minimum absolute diameter, and percent diameter stenosis (ACE [11]): no significant difference

CCCC(=O)[O-].[Na+] [sodium butyrate]
phosphorylation of ERK1/2 (ERK1/2): phosphorylation of ERK1/2
growth of LS 174T cells [12]: significant growth inhibition
MT mRNA levels (metallothionein (MT) [13]; OC15 EC, OC15 END cells): increased MT mRNA levels
increase in MT mRNA (metallothionein (MT) [13]; OC15 carcinoma cells): 20 fold
MT synthesis (metallothionein (MT) [14]): dose-dependent increase
increase in MT mRNA (metallothionein (MT) [15]): 2-4 fold

[O]=[V]([O-])([O-])[O-] [vanadate, Vanadate (VO4^−3)]
ERK activation (ERK [4]; as general PTP inhibitors): activate ERK
liver PFK-2/FBPase-2 mRNA content (PFK-2/FBPase-2): progressive increase
decrease in plasma glucose [16]: 36%
decrease in plasma insulin [16]: 80%

IL-1β: human recombinant IL-1β, an ERK agent
decrease in nighttime food intake [17]: 66.1%
glucose blood levels [18]: normalization of glucose blood levels
growth of isolated scalp hair (anagen hair follicles; Xiong 1997): growth inhibition

leptin: an ERK agent that binds the long form leptin receptor
tyrosine phosphorylation of STAT3 and ERK [19]: increased tyrosine phosphorylation of STAT3 and ERK

pervanadate
PTP1B activity (PTP1B): inhibition
